One series deals with HIV-1. Briefly: in-vitro anti-HIV assay: inhibition of HIV-induced cytopathic effect in MT-4 cells (MTT). The format is cell-based. Conditions: for SI (selectivity index, ratio of CD50 to ED50): CD50/ED50, MT-4 cells; for EC50: Human immunodeficiency virus 1, MT4, HIV-infected MT-4 cells, cytopathic effect, MTT, 540 nm, read-out: ED50 (dose achieving 50% protection). On the procedure: (§1) A rapid, sensitive and automated assay procedure was used for the in-vitro evaluation of anti-HIV agents. An […] T4-cell line, MT-4, which was previously shown (Koyanagi et al., Int. J. Cancer, 36, 445-451, 1985) to be highly susceptible to and permissive for HIV infection, served as the target cell line. Inhibition of the HIV-induced cytopathic effect was used as the end point. The viability of both HIV-and mock-infected cells was assessed spectrophotometrically via the in-situ reduction of 3-(4,5-dimethylthiazol-2-yl)-2,5-diphenyltetrazolium bromide (MTT). The 50% cytotoxic dose (CD50 in μg/ml) was defined as the concentration of compound that reduced the absorbance of the mock-infectedcontrol sample by 50%. The percent protection achieved by the compound in HIV-infected cells was calculated by the following formula: [formula] whereby (ODT)HIV is the optical density measured with a given concentration of the test compound in HIV-infected cells; (ODC)HIV is the optical density measured for the control untreated HIV-infected cells; (ODC)MOCK is the optical density measured for the control untreated mock-infected cells; all optical density values were determined at 540 nm. The dose achieving 50% protection according to the above formula was defined as the 50% effective dose (ED50 in μg/ml). The ratio of CD50 to ED50 was defined as the selectivity index (SI).
In general terms: Cytopathic effects are the visible damage that an infection or toxin causes in cultured cells.

The next series is described as follows: in vitro. The format is cell-based. Conditions: human, mt-4 cells. On the procedure: as §1

The structures appear in SMILES notation. In brackets after ≈: the same amount, converted by molar mass.

Usually CC50 stands for the concentration that lowers cell viability or growth by half. A lower CC50 goes with harm at low concentration. For the molecule `CC(=O)c1ccccc1NC(C(N)=O)c1c(Cl)cccc1Cl` (racemic) [Compound 22, (±)-α[(2-acetylphenyl)amino]-2,6-dichlorobenzeneacetamide], in the series with HIV-1, the “SI (selectivity index, ratio of CD50 to ED50)” value is given as ~ 2700 and the EC50 turned out to be 0.013 µg/mL (≈ 0.0386 µM). In the series “in vitro”, this molecule gave a CC50 of 35 µg/mL (≈ 104 µM).

For `CC(=O)c1ccccc1NC(C(N)=O)c1c(Cl)cccc1Cl` (single isomer, unassigned) [Compound 23, (-)-α-[(2-acetylphenyl)amino]-2,6-dichlorobenzeneacetamide], in the series on HIV-1, the “SI (selectivity index, ratio of CD50 to ED50)” value is reported as ~ 3000 and the EC50 was 0.0066 µg/mL (≈ 0.0196 µM). Also, the CC50 in the series “in vitro” is 20 µg/mL (≈ 59.3 µM).

Turning to `Cc1ccc([N+](=O)[O-])c(NC(C(N)=O)c2c(Cl)cccc2Cl)c1` (single isomer, unassigned) [Compound 29, (-)-α-[(5-methyl-2-nitrophenyl)amino]-2,6-dichlorobenzeneacetamide], in the series with HIV-1, the “SI (selectivity index, ratio of CD50 to ED50)” value was ~ 1550 and the EC50 worked out at 0.0032 µg/mL (≈ 0.00903 µM). This molecule showed a CC50 in “in vitro” of 5 µg/mL (≈ 14.1 µM).

On to `NC(=O)C(Nc1ccccc1[N+](=O)[O-])c1c(Cl)cccc1Cl` (single isomer, unassigned; (-)) [Compound 25, (-)-2,6-dichloro-α-[(2-nitrophenyl)amino]benzeneacetamide], for which, in the series on HIV-1, the “SI (selectivity index, ratio of CD50 to ED50)” value was ~ 1600 and the EC50 was determined as 0.018 µg/mL (≈ 0.0529 µM). Also, the CC50 in the series “in vitro” stood at 29 µg/mL (≈ 85.3 µM).

Turning to `NC(=O)C(Nc1ccccc1[N+](=O)[O-])c1c(Cl)cccc1Cl` (stereo not drawn) [Compound 15, 2-(2,6-dichlorophenyl)-2-[(2-nitrophenyl)amino]acetamide], in the series on HIV-1, the “SI (selectivity index, ratio of CD50 to ED50)” value is ~ 1000 and the EC50 came to 0.02 µg/mL (≈ 0.0588 µM). The molecule further registered a CC50 in “in vitro” of 20 µg/mL (≈ 58.8 µM).

Take `Cc1cc(NC(C(N)=O)c2c(Cl)cccc2Cl)c([N+](=O)[O-])cc1C` (stereo not drawn) [Compound 24]: in the series with HIV-1, the “SI (selectivity index, ratio of CD50 to ED50)” value was ~ 2100 and the EC50 came out at 0.077 µg/mL (≈ 0.209 µM). For the same molecule, the midpoint of cytotoxicity in the series “in vitro”, the CC50, lay at 160 µg/mL (≈ 435 µM).

Turning to `Cc1ccc([N+](=O)[O-])c(NC(C(N)=O)c2c(Cl)cccc2Cl)c1` (stereo not drawn) [Compound 26], in the series on HIV-1, the “SI (selectivity index, ratio of CD50 to ED50)” value is no less than 4400 and the EC50 worked out at 0.057 µg/mL (≈ 0.161 µM). Further, the CC50 in the series “in vitro” is greater than 250 µg/mL.

Consider `Cc1cc(C)c([N+](=O)[O-])c(NC(C(N)=O)c2c(Cl)cccc2Cl)c1` (stereo not drawn) [Compound 27], for which, in the series with HIV-1, the “SI (selectivity index, ratio of CD50 to ED50)” value was ~ 100 and the EC50 turned out to be 0.049 µg/mL (≈ 0.133 µM). Further, it took 5 µg/mL (≈ 13.6 µM) to reach half-maximal cytotoxicity in the series “in vitro” (CC50).

With `Cc1cc(NC(C(N)=O)c2c(Cl)ccc(Cl)c2Cl)c([N+](=O)[O-])cc1C` (stereo not drawn) [Compound 28], in the series on HIV-1, the “SI (selectivity index, ratio of CD50 to ED50)” value is on record as ~ 140 and the EC50 is 0.07 µg/mL (≈ 0.174 µM). The CC50 in “in vitro” came out at 10 µg/mL (≈ 24.8 µM).

Turning to `CC(=O)c1ccc(Cl)cc1NC(C(N)=O)c1c(Cl)cccc1Cl` (stereo not drawn) [Compound 30, α-[(2-acetyl-5-chlorophenyl)amino]-2,6-dichlorobenzeneacetamide], in the series with HIV-1, the “SI (selectivity index, ratio of CD50 to ED50)” value was ~ 18000 and the EC50 came to 0.011 µg/mL (≈ 0.0296 µM). The molecule further showed a CC50 in the series “in vitro” of 200 µg/mL (≈ 538 µM).

For the origin of these results see patent US5556886A, “HIV-inhibiting benzeneacetamide derivatives” (Janssen Pharmaceutica N.V., priority 1990, dated 1996).
